The text below walks through data of publication PMC10815079, “α-L-Fucosidases from an Alpaca Faeces Metagenome: Characterisation of Hydrolytic and Transfucosylation Potential” (International Journal of Molecular Sciences, 2024).

Among the test systems are Fuc25D; Fuc25A; Fuc25E; Fuc25C.
Holding throughout (test): p-nitrophenol release at […] nm, Michaelis-Menten fit
Format in all cases: biochemical, uncultured bacterium (alpaca faeces metagenome)
Holding throughout (settings): 50 mM potassium phosphate pH 7.5, 20 °C

As to `C[C@@H]1O[C@@H](Oc2ccc([N+](=O)[O-])cc2)[C@@H](O)[C@H](O)[C@@H]1O` [pNP-αFuc], the Km with Fuc25D is 79.7 ± 8.6 µM; in the test on Fuc25A it was 334 ± 21.4 µM; in the test with Fuc25E, 85.1 ± 12.9 µM; in the test with Fuc25C it was 1400 ± 374 µM.

Usually Km stands for the substrate concentration at which the rate is half of its maximum.
